We go through 3 compounds from US20230357239A1, “PYRIDO[2,3-D]PYRIMIDIN-4-AMINES AS SOS1 INHIBITORS” (Bayer Aktiengesellschaft, priority 2020, published 2023).

human SOS1 (SOS1) with human K-RasG12C, sequence (Q07889 564-1049): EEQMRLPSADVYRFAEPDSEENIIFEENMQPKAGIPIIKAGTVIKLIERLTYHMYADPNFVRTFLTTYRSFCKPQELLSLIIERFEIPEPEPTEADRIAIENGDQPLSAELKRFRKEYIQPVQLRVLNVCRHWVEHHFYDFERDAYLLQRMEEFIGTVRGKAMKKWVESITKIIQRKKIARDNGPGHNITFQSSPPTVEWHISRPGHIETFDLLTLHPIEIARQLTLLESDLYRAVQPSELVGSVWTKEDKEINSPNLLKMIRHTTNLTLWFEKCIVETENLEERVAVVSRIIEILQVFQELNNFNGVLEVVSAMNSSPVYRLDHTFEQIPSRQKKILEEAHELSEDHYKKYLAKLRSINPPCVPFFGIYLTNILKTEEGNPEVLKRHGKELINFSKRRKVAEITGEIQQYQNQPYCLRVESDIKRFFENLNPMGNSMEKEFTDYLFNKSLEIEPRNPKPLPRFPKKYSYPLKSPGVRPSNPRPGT

The experiment addresses human SOS1 (SOS1) with human K-RasG12C (Homo sapiens (Human), UniProt Q07889). Put plainly: hK-RasG12C interaction assay with hSOS1 (HTRF). The class given is binding. As to conditions: GST-hK-RasG12C and His-hSOS1, 60 min incubation at 20° C, mean, read-out: K-RasG12C - SOS interaction assay IC50 - [mol/l] (mean). For orientation: TR-FRET usually uses a lanthanide donor and a delayed reading to cut background.
In the case of `CC(=O)N1CC2(C1)CN(c1cc3c(N[C@H](C)c4cccc(C(F)F)c4F)nc(C)nc3nc1C(F)(F)F)C2` [Example 69, 1-{6-[4-({(1R)-1-[3-(difluoromethyl)-2-fluorophenyl]ethyl}amino)-2-methyl-7-(trifluoromethyl)pyrido[2,3-d]pyrimidin-6-yl]-2,6-diazaspiro[3.3]heptan-2-yl}ethan-1-one], the IC50 amounted to 29.5 nM.
As for `CC(=O)N1CC2(C1)CN(c1cc3c(N[C@H](C)c4cccc(C(F)(F)C(C)(C)O)c4F)nc(C)nc3nc1C(F)(F)F)C2` [Example 70, 1-{6-[4-({(1R)-1-[3-(1,1-difluoro-2-hydroxy-2-methylpropyl)-2-fluorophenyl]ethyl}amino)-2-methyl-7-(trifluoromethyl)pyrido[2,3-d]pyrimidin-6-yl]-2,6-diazaspiro[3.3]heptan-2-yl}ethan-1-one], the IC50 was found to be 5.47 nM.
The value for `CC(=O)N1CC2(C1)CN(c1cc3c(N[C@H](C)c4cccc(C(F)(F)F)c4C)nc(C)nc3nc1C(F)(F)F)C2` [Example 71, 1-{6-[2-methyl-4-({(1R)-1-[2-methyl-3-(trifluoromethyl)phenyl]ethyl}amino)-7-(trifluoromethyl)pyrido[2,3-d]pyrimidin-6-yl]-2,6-diazaspiro[3.3]heptan-2-yl}ethan-1-one] was 5.78 nM.
